Experimental data as given in publication PMC4788259 (PLoS Neglected Tropical Diseases, 2016).

The compounds below were run on E. multilocularis metacestodes (assay: PGI assay: phosphoglucose isomerase release from damaged metacestodes). Conditions: 10 μM, 5 days, single wells, relative to DB1127 (10 μM).
Format: cell-based, Echinococcus multilocularis
Description: The preparation of E. multilocularis metacestode material (strain H95) from intraperitoneally (i.p.) infected BALB/c mice was performed as described earlier. Metacestode vesicles were used for in vitro drug screening when they reached 2 to 4 mm in diameter.
For screening of the Malaria Box against E. multilocularis metacestodes, the PGI screening assay was applied that measures the release of the enzyme phosphoglucose isomerase (PGI) upon physical impairment of metacestodes. The screening setup was done in 24 well plates as described by Stadelmann et al. For initial screening, each drug was applied at 10 μM to metacestodes in single wells. As a positive control-drug, the dicationic diguanidino compound DB1127 (10 μM) was used and 0.1% DMSO was added as negative control. Metacestodes were cultured in the presence of the compounds for 5 days, after which PGI release was quantified exactly as stated in Stadelmann et al. […] Averages, standard deviations and EC50 values were calculated in Microsoft Excel 2010.

Row | Structure (SMILES) | PGI (% of DB1127 at 10 uM) [%]
1 | Oc1ccc2ccccc2c1CNc1nc2ccccc2[nH]1 [MMV011832] | 34.82
2 | Nc1nc(Nc2cccc(F)c2)nc2ccccc12 [MMV080034] | -19.84
3 | COc1ccc(C(C)=O)cc1N1C(=O)C2C(C1=O)C1(c3ccccc3)C(=O)C2(c2ccccc2)C(c2ccc(C)cc2)=C1c1ccc(C)cc1 (stereo not drawn) [MMV007695] | 4.56
4 | C[n+]1c2ccccc2nc2ccc(NCCO)cc21 [MMV396693] | -18.69
5 | CCOc1c(Cl)cc(CNC(C)C(O)c2ccccc2)cc1OC (stereo not drawn) [MMV665857] | -30.92
6 | Br.CCN(CC)S(=O)(=O)c1ccc(-c2csc(Nc3ccc(C)c(C)c3)n2)cc1 [MMV009108] | 14.04
7 | CC1CCN(Cc2ccc(NC(=O)c3cc4ccc5cccnc5c4[nH]3)cc2)CC1 [MMV020549] | -59.67
8 | CC(C)CNC(=O)c1c(N)n(CCc2ccccc2F)c2nc3ccccc3nc12 [MMV396744] | -10.23
9 | COc1cccc(C(=O)NC(c2ccc(C)cc2)c2cc(Cl)c3cccnc3c2O)c1 (stereo not drawn) [MMV665969] | -25.94
10 | CCOc1ccc(/C=C/c2nc(=O)c3ccccc3o2)cc1 [MMV665940] | -92.49
11 | CCCCNCC(O)(c1ccc(Cl)cc1)c1ccc(Cl)cc1 [MMV665929] | -0.59
12 | COc1ccc(C(O)(CCC(C)C)C(CN2CCOCC2)c2ccc(Cl)cc2)cc1.Cl (stereo not drawn) [MMV000617] | -8.60
13 | O=C(Nc1ccsc1C(=O)NC1CCCCC1)c1ccc(F)cc1 [MMV665939] | -15.17
14 | CCCCCCOC(=O)C1=C(C)NC(=O)NC1c1ccccc1F (stereo not drawn) [MMV007686] | -24.58
15 | Cc1ccc(Cn2c(N3CCC(C(=O)NCc4cccs4)CC3)nc3ccccc32)cc1 [MMV007564] | -118.82
16 | COc1ccc(CNC2CCN(c3ccc(NC(=O)c4cccc(Cl)c4)cc3)CC2)cc1OC [MMV666067] | -35.43
17 | CCOc1cc(Cl)c(C(C)NC(=O)c2cccc(OC)c2)cc1OCC (stereo not drawn) [MMV665803] | -50.18
18 | O=C(NCC1Cc2cccc(-c3ccncc3)c2O1)c1csc2c1CCCC2 (stereo not drawn) [MMV665954] | -10.62
19 | CN(C)c1ccc(N=Cc2ccc(N3CCOCC3)cc2)cc1 [MMV073843] | -14.14
20 | CCN(CC)CCCNc1nc(-c2ccc(Cl)cc2)nc2ccccc12 [MMV665961] | -34.32
21 | Cc1ccc(OCCCCCCNCCO)c(C)c1 [MMV666020] | 2.96
22 | Cc1sc(NC(=O)c2ccco2)c(C(c2cccnc2)N2CCC(Cc3ccccc3)CC2)c1C (stereo not drawn) [MMV396663] | -1.97
23 | Cc1ccc(Nc2nc(NCCO)c3ccccc3n2)cc1C [MMV001038] | 16.86
24 | CC(C)OCc1cc(CN2CCN(c3cccc(Cl)c3)CC2)c(O)c2ncccc12 [MMV000788] | -14.40
25 | Cc1ccc(N2C3c4ccccc4N(S(=O)(=O)c4ccc(C)cc4)C2c2ccccc2N3S(=O)(=O)c2ccc(C)cc2)cc1 [MMV007160] | -42.36

Row | Structure (SMILES) | PGI (% of DB1127 at 10 uM) [%]
26 | CCOc1c(Br)cc(C2C(C(=O)OC)=CN(C)C=C2C(=O)OC)cc1OC [MMV006764] | -0.44
27 | CCC(O)c1ccc(Br)cc1NC(=O)c1cccc(Cl)c1 (stereo not drawn) [MMV020654] | -1.89
28 | CCOc1ccccc1CNC(=O)C1c2ccccc2C(=O)N(CC(C)C)C1c1cccs1 (stereo not drawn) [MMV000653] | -120.29
29 | O=C(NC1CCN(Cc2ccccc2)CC1)c1cc(C(=O)NC2CCN(Cc3ccccc3)CC2)cc(C(=O)NC2CCN(Cc3ccccc3)CC2)c1 [MMV019881] | 9.54
30 | Cc1ccc(S(=O)(=O)c2c(COC(=O)c3cccc(C)c3)c(-c3ccccc3)nn2C)cc1 [MMV665936] | -18.54
31 | CCOC(=O)c1ccc2[nH]c(-c3ccccc3)cc(=O)c2c1 [MMV006457] | 4.84
32 | Cc1cc(NC(=O)C2c3ccccc3C(=O)N(CC(C)C)C2c2cccs2)no1 (stereo not drawn) [MMV006429] | -37.87
33 | CCN(CC)CCn1c(=N)n(CC(O)c2ccc(Cl)c(Cl)c2)c2ccccc21.Cl (stereo not drawn) [MMV000248] | -18.11
34 | COCCN(C(=O)Cc1cccs1)C(C(=O)NCc1ccc(OC)cc1)c1ccc(C(C)C)cc1 (stereo not drawn) [MMV666105] | -124.48
35 | COc1ccc(C2NCCc3c2[nH]c2ccccc32)cc1CN1CCN(c2ccc(F)cc2)CC1.Cl (stereo not drawn) [MMV019690] | 51.28
36 | O=C(Nc1ccccc1O)c1ccc(Oc2cccc(C(=O)Nc3ccccc3O)c2)cc1 [MMV665888] | -15.91
37 | O=C(Nc1ccc(-c2nc3ccccc3[nH]2)cc1)c1ccc(Cl)c(Cl)c1 [MMV665840] | -1.75
38 | COc1cccc(C(=O)Nc2ccc(-c3nc4ccccc4[nH]3)cc2)c1 [MMV019762] | -25.80
39 | CCCCCCn1c(=N)n(CC(O)COc2cccc(C)c2)c2ccccc21.Cl (stereo not drawn) [MMV000445] | 130.28
40 | O=C(O)C(=O)O.Oc1ccccc1CN1CCN(C(c2ccccc2)c2ccccc2)CC1 [MMV011795] | -19.79
41 | O=C1CC(O)(C(F)(F)C(F)(F)F)Oc2ccccc21 (stereo not drawn) [MMV000972] | 141.59
42 | CCCCOC(=O)c1ccc(Nc2cc(C)nc3ccc(OC)cc23)cc1 [MMV665797] | 0.71
43 | CCOC(=O)c1cnc2c(C)cccc2c1Nc1ccc(C(C)=O)cc1 [MMV006250] | -32.91
44 | CC(C)CCNCC(O)Cn1c2ccccc2c2ccccc21.Cl (stereo not drawn) [MMV006787] | 62.04
45 | O=C(Nc1ccc(CN2CCOCC2)cc1)c1ccc(-c2ccc(Br)cc2)o1 [MMV665901] | -20.18
46 | COc1ccc(Br)cc1C1Nc2ccc3ccccc3c2C2=C1C(=O)CC(c1ccccc1)C2 (stereo not drawn) [MMV020885] | -45.01
47 | Cl.N=c1n(CCN2CCCCC2)c2ccccc2n1CC(O)c1cccc(Br)c1 (stereo not drawn) [MMV665902] | -8.42
48 | CC(Oc1ccc(NC(=O)c2cccs2)cc1)C(=O)c1ccc(Cl)cc1 (stereo not drawn) [MMV665886] | 2.30
49 | COc1nc(Nc2ccc(C(C)C)cc2)nc(OC)n1 [MMV007808] | -19.50
50 | COc1ccc(Nc2nc(N/N=C/c3ccc(O)cc3)nc(Nc3ccc([N+](=O)[O-])cc3)n2)cc1 [MMV666689] | 5.99

Row | Structure (SMILES) | PGI (% of DB1127 at 10 uM) [%]
51 | CN(C)c1ccc(-c2nc3ccc(N)cc3[nH]2)cc1 [MMV666102] | -14.14
52 | O=C(Nc1nc(-c2ccccn2)cs1)c1ccccc1Br [MMV665909] | -125.86
53 | COc1ccc(Nc2nc(NCc3ccccc3)c3ccccc3n2)cc1 [MMV000963] | 109.36
54 | CCN(CC)CCNc1ccnc2cc(Cl)ccc12 [MMV006087] | -37.06
55 | COc1ccc(C2c3ccc4ccccc4c3Oc3ncn(CCCn4ccnc4)c(=N)c32)cc1OC (stereo not drawn) [MMV667490] | -1.19
56 | COc1ccc(-c2nc3cc(Cc4ccc5[nH]c(-c6ccc(OC)cc6)nc5c4)ccc3[nH]2)cc1 [MMV007384] | 61.95
57 | Cc1ccc(-c2cc3c(nn2)-c2ccccc2C3=O)cc1 [MMV666021] | -22.93
58 | OC1CCCCC1C1(NC(=S)Nc2ccccc2)CCCCC1 (stereo not drawn) [MMV665980] | -9.51
59 | COc1ccc(CNC(=O)c2cc3c(=O)n4ccccc4nc3n(CCc3ccccc3)c2=N)cc1 [MMV665881] | 6.76
60 | c1ccc2c(NCCc3c[nH]c4ccccc34)c3ccccc3nc2c1 [MMV006513] | 41.08
61 | COc1ccc2c(c1OC)C(=O)N1c3ccccc3N=C(c3ccc(C)cc3)CC21 (stereo not drawn) [MMV000917] | -0.60
62 | O=C(CSc1ccc2nnc(-c3cccc(F)c3)n2n1)Nc1ccc2c(c1)OCO2 [MMV665918] | -24.34
63 | CC(C)(C)c1ccc(C(=O)Nc2c3c(nn2-c2cccc(Cl)c2)CSC3)cc1 [MMV666123] | -7.56
64 | COc1cc(OC)cc(N2C(=O)N(Cc3ccc(C(C)(C)C)cc3)c3ccccc3S2(=O)=O)c1 [MMV008173] | -29.78
65 | CCN(CC)c1ccc(NC(=O)c2cccs2)cc1 [MMV009060] | -36.82
66 | O=c1cc(NC2CCN(CCCc3ccccc3)CC2)c2cc(Cl)ccc2o1 [MMV665786] | -0.88
67 | O=C(Nc1ccc(N2CCN(Cc3ccccc3)CC2)cc1)c1cccs1.O=C(O)C(F)(F)F [MMV019670] | -9.43
68 | COc1ccc(CCn2c(=N)c(C(=O)NCc3cccnc3)cc3c(=O)n4cccc(C)c4nc32)cc1 [MMV667488] | -13.42
69 | CCCN(CCC)CCCNC(=O)c1cc2c(-c3ccc(OC)c(OC)c3)nn(C)c2s1 [MMV000561] | -1.54
70 | Cc1cccc(Nc2nc(N)c3ccccc3n2)c1.Cl [MMV019110] | -9.63
71 | COc1cc2cc(C(=O)Nc3ccccc3)c(N)nc2cc1OC [MMV006767] | -7.82
72 | COc1cccc(O)c1CN1CCC2(CCCN(Cc3ccc(F)cc3)C2)C1 (stereo not drawn) [MMV666061] | -20.69
73 | Cc1ccccc1OCCSc1nc2ccc(NC(=O)c3cccs3)cc2s1 [MMV007396] | -6.56
74 | CCOc1cc(CNC(C)C(O)c2ccccc2)cc(Cl)c1OCC (stereo not drawn) [MMV396633] | 30.39
75 | CCOC(=O)c1cnc2ccc(OC)cc2c1Nc1ccc(N2CCN(C)CC2)cc1 [MMV000704] | 8.26
